Data reported in patent US12649750B2, “Macrocyclic compounds, compositions, and methods of using thereof” (Sionna Therapeutics Inc., priority 2022, dated 2026).

Target: T1, NBD1 (Homo sapiens, UniProt P13569)
T1 construct: Purified recombinant NBD1 was produced using previously described methods; made in house
Test: Aggregation analysis using differential static light scattering (DSLS), thermal stability of NBD1 (ΔTagg)
Type: binding
Conditions: ΔTagg versus DMSO control, NBD1 0.2 mg/ml
Procedure: Example 386. Aggregation Analysis Using Differential Static Light Scattering (DSLS)
Purified recombinant NBD1 was produced using previously described methods (A. Schmidt, J. L. Mendoza, P. J. Thomas (2011) Biochemical and Biophysical Approaches to Probe CFTR Structure (365-376) M. D. Amaral, K. Kunzelmann (eds.), Cystic Fibrosis, Methods in Molecular Biology 741, Springer Science+Business Media). The effect of test compounds on thermal stability of NBD1 was evaluated by differential static light scattering (DSLS) using the Harbinger Stargazer-384 instrument (Epiphyte Three, Toronto, Canada). Test compounds were dissolved and diluted to desired concentrations in 100% DMSO. The compounds or DMSO controls (100 nL) were stamped into wells of a […] low volume optical plate (Corning Inc., Corning, NY) using the Echo 555 acoustic liquid handler (Labcyte Inc., San Jose, CA).
NBD1 protein was diluted to 0.2 mg/ml in S200 buffer (50 mM Tris-HCl, 150 mM NaCl, 5 mM MgCl2, 2 mM ATP, 2 mM DTT, pH7.6) containing 1% glycerol. 10 uL of protein solution was aliquoted into the 384-well plate harboring the test compounds and 10 uL mineral oil was overlaid onto the protein solution, using the epMotion robotic liquid handler (Eppendorf North America, Hauppauge, NY). After placing into the Stargazer instrument, the plate was heated at 1° C. per minute to 70° C. Images were captured from 25° C. to 70° C. every 0.5° C. At the end of the experiment run, instrument software integrated image files and analyzed data automatically. A […] regression curve was generated for each well, representing the increase in light scattering over time. A temperature of aggregation (Tagg) was calculated based on the inflection point of the curve. To better compare data across experiments the average Tagg for DMSO control wells was calculated and subtracted from values for wells containing compounds to obtain a “ΔTagg” value. These ΔTagg values reflect stabilizing efficacy of the compounds. As set forth in Table 2 below, an ΔTagg value less than or equal to 5° C. is marked “A”; a value above 5° C. and less than or equal to 10° C. is marked “B”; a value greater than 10° C. and less than or equal to 25° C. is marked “C”.

T1 sequence (P13569 423-646 limits assumed): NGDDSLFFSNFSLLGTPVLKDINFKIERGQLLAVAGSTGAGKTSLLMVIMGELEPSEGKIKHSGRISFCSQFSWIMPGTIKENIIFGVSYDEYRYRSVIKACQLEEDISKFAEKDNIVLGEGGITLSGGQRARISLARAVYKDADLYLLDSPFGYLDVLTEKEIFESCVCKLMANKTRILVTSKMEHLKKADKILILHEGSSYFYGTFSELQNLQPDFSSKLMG

SMILES | DSLS 3D (100 μM ΔT)
C[C@H](Cc1cccc([C@@]2(C)CCCC(C)(C)CS(=O)(=O)CCc3c(c(F)c(F)c4[nH]ccc34)[S+]([O-])c3ccc(F)c(c3)-c3nc2nn3C)c1)C(=O)O (single isomer, unassigned) [Compound 319] | B (a value above 5 °C and less than or equal to 10 °C is marked “B”)
Cn1nc2nc1-c1cc(ccc1F)[S+]([O-])c1c(F)c(F)c3[nH]cc(CC(=O)O)c3c1CCS(=O)(=O)CC(C)(C)CCC[C@]2(C)c1ccccc1 (single isomer, unassigned) [Compound 326] | A (an ΔTagg value less than or equal to 5 °C is marked “A”)
C[C@@H](Cc1cccc([C@@]2(C)CCCC(C)(C)CS(=O)(=O)CCc3c(c(F)cc4[nH]ccc34)[S+]([O-])c3cccc(c3)-c3coc2n3)c1)C(=O)O (single isomer, unassigned) [Compound 330] | A (an ΔTagg value less than or equal to 5 °C is marked “A”)
Cn1nc2nc1-c1cc(ccn1)[S+]([O-])c1c(F)cc3[nH]ccc3c1CCS(=O)(=O)CC(C)(C)CCC[C@]2(C)c1cccc(C[C@H](O)CO)c1 (single isomer, unassigned) [Compound 334] | B (a value above 5 °C and less than or equal to 10 °C is marked “B”)
Cn1nc2nc1-c1cc(ccn1)[S+]([O-])c1c(F)cc3[nH]ccc3c1CCS(=O)(=O)CC(C)(C)CCC[C@]2(C)c1cccc(C[C@@H](O)CO)c1 (single isomer, unassigned) [Compound 337] | A (an ΔTagg value less than or equal to 5 °C is marked “A”)
Cn1nc2nc1-c1cc(ccn1)[S+]([O-])c1c(F)c(F)c3[nH]ccc3c1CCS(=O)(=O)CC(C)(C)CCC[C@]2(C)c1cccc(C[C@H](O)CO)c1 (single isomer, unassigned) [Compound 341] | B (a value above 5 °C and less than or equal to 10 °C is marked “B”)
CNC(=O)[C@H](C)Cc1cccc([C@@]2(C)CCCC(C)(C)CS(=O)(=O)CC(NC)c3c(c(F)c(F)c4[nH]ccc34)Oc3ccc(F)c(c3)-c3nc2nn3C)c1 (single isomer, unassigned) [Compound 360B] | B (a value above 5 °C and less than or equal to 10 °C is marked “B”)
CNC(=O)[C@H](C)Cc1cccc([C@@]2(C)CCCC(C)(C)CS(=O)(=O)CC(NC)c3c(c(F)c(F)c4[nH]ccc34)Oc3ccc(F)c(c3)-c3nc2nn3C)c1 (single isomer, unassigned) [Compound 360C] | A (an ΔTagg value less than or equal to 5 °C is marked “A”)
Cn1nc2nc1-c1cc(ccn1)[S+]([O-])c1c(F)cc3[nH]cc(CC(=O)O)c3c1CCS(=O)(=O)CC(C)(C)CCC[C@]2(C)c1ccccc1 (single isomer, unassigned) [Compound 365] | A (an ΔTagg value less than or equal to 5 °C is marked “A”)
C[C@H](Cc1cccc([C@@]2(C)CCCC(C)(C)CS(=O)(=O)CC(N(C)C)c3c(c(F)c(F)c4[nH]ccc34)Oc3ccc(F)c(c3)-c3nc2nn3C)c1)C(=O)N(C)C (single isomer, unassigned) [Compound 367A] | A (an ΔTagg value less than or equal to 5 °C is marked “A”)
C[C@H](Cc1cccc([C@@]2(C)CCCC(C)(C)CS(=O)(=O)CC(N(C)C)c3c(c(F)c(F)c4[nH]ccc34)Oc3ccc(F)c(c3)-c3nc2nn3C)c1)C(=O)N(C)C (single isomer, unassigned) [Compound 367B] | A (an ΔTagg value less than or equal to 5 °C is marked “A”)
CNC(=O)[C@@H](C)Cc1cccc([C@@]2(C)CCCC(C)(C)CS(=O)(=O)CC(NC)c3c(c(F)cc4[nH]ccc34)Sc3ccc(F)c(c3)-c3nc2nn3C)c1 (single isomer, unassigned) [Compound 368A] | B (a value above 5 °C and less than or equal to 10 °C is marked “B”)
CNC(=O)[C@@H](C)Cc1cccc([C@@]2(C)CCCC(C)(C)CS(=O)(=O)CC(NC)c3c(c(F)cc4[nH]ccc34)Sc3ccc(F)c(c3)-c3nc2nn3C)c1 (single isomer, unassigned) [Compound 368B] | A (an ΔTagg value less than or equal to 5 °C is marked “A”)
CC(=O)NC1CS(=O)(=O)CC(C)(C)CCC[C@](C)(c2cccc(C[C@@H](C)C(=O)O)c2)c2nc(n(C)n2)-c2cc(ccc2F)Oc2c(F)c(F)c3[nH]ccc3c21 (single isomer, unassigned) [Compound 369A] | C (a value greater than 10 °C and less than or equal to 25 °C is marked “C”)
CC(=O)NC1CS(=O)(=O)CC(C)(C)CCC[C@](C)(c2cccc(C[C@@H](C)C(=O)O)c2)c2nc(n(C)n2)-c2cc(ccc2F)Oc2c(F)c(F)c3[nH]ccc3c21 (single isomer, unassigned) [Compound 369B] | B (a value above 5 °C and less than or equal to 10 °C is marked “B”)
C[C@@H](Cc1cccc([C@@]2(C)CCCC(C)(C)CS(=O)(=O)CC(N)c3c(c(F)cc4[nH]ccc34)Sc3ccc(F)c(c3)-c3nc2nn3C)c1)C(N)=O (single isomer, unassigned) [Compound 370A] | B (a value above 5 °C and less than or equal to 10 °C is marked “B”)
C[C@@H](Cc1cccc([C@@]2(C)CCCC(C)(C)CS(=O)(=O)CC(N)c3c(c(F)cc4[nH]ccc34)Sc3ccc(F)c(c3)-c3nc2nn3C)c1)C(N)=O (single isomer, unassigned) [Compound 370B] | A (an ΔTagg value less than or equal to 5 °C is marked “A”)
COCC(Cc1cccc([C@@]2(C)CCCC(C)(C)CS(=O)(=O)CCc3c(c(F)c(F)c4[nH]ccc34)[S+]([O-])c3ccc(F)c(c3)-c3nc2nn3C)c1)C(=O)O (single isomer, unassigned) [Compound 371] | B (a value above 5 °C and less than or equal to 10 °C is marked “B”)
COCC(Cc1cccc([C@@]2(C)CCCC(C)(C)CS(=O)(=O)CCc3c(c(F)c(F)c4[nH]ccc34)[S+]([O-])c3ccc(F)c(c3)-c3nc2nn3C)c1)C(=O)O (single isomer, unassigned) [Compound 372] | B (a value above 5 °C and less than or equal to 10 °C is marked “B”)
COCC(Cc1cccc([C@@]2(C)CCCC(C)(C)CS(=O)(=O)CCc3c(c(F)c(F)c4[nH]ccc34)[S+]([O-])c3ccnc(c3)-c3nc2nn3C)c1)C(=O)O (single isomer, unassigned) [Compound 374] | B (a value above 5 °C and less than or equal to 10 °C is marked “B”)
COCC(Cc1cccc([C@@]2(C)CCCC(C)(C)CS(=O)(=O)CCc3c(c(F)c(F)c4[nH]ccc34)[S+]([O-])c3ccnc(c3)-c3nc2nn3C)c1)C(=O)O (single isomer, unassigned) [Compound 375] | B (a value above 5 °C and less than or equal to 10 °C is marked “B”)
C[C@H](Cc1cccc([C@@]2(C)CCCC(C)(C)CS(=O)(=O)CCc3c(c(F)cc4[nH]ccc34)[S+]([O-])c3cc(c(F)cc3N)-c3nc2nn3C)c1)C(=O)O (single isomer, unassigned) [Compound 379A] | A (an ΔTagg value less than or equal to 5 °C is marked “A”)
C[C@H](Cc1cccc([C@@]2(C)CCCC(C)(C)CS(=O)(=O)CCc3c(c(F)cc4[nH]ccc34)[S+]([O-])c3cc(c(F)cc3N)-c3nc2nn3C)c1)C(=O)O (single isomer, unassigned) [Compound 379B] | A (an ΔTagg value less than or equal to 5 °C is marked “A”)
C[C@H](Cc1cccc(C2NCCOCCS(=O)(=O)Cc3c(c(F)c(F)c4[nH]ccc34)Oc3ccc(F)c(c3)-c3nc2nn3C)c1)C(=O)O (single isomer, unassigned) [Compound 381A] | A (an ΔTagg value less than or equal to 5 °C is marked “A”)
C[C@H](Cc1cccc(C2NCCOCCS(=O)(=O)Cc3c(c(F)c(F)c4[nH]ccc34)Oc3ccc(F)c(c3)-c3nc2nn3C)c1)C(=O)O (single isomer, unassigned) [Compound 381B] | A (an ΔTagg value less than or equal to 5 °C is marked “A”)
C[C@H](Cc1cccc([C@@]2(C)CCCC(C)(C)CS(=O)(=O)CC(N)c3c(c(F)c(F)c4[nH]ccc34)Oc3ccc(F)c(c3)-c3nc2nn3C)c1)C(N)=O (single isomer, unassigned) [Compound 385A] | B (a value above 5 °C and less than or equal to 10 °C is marked “B”)
C[C@H](Cc1cccc([C@@]2(C)CCCC(C)(C)CS(=O)(=O)CC(N)c3c(c(F)c(F)c4[nH]ccc34)Oc3ccc(F)c(c3)-c3nc2nn3C)c1)C(N)=O (single isomer, unassigned) [Compound 385B] | A (an ΔTagg value less than or equal to 5 °C is marked “A”)
